One block for each compound: values may come before it. *1 amine or outer side, *2 acyl side, *3 side chain or, on linkers, in order; H or OH if unused. Where a SMILES comes first, the peptide text is derived from it. Bridges are numbered along the chain shown (N, C = ends). The star is where a group is joined. Ethylenediamine = C(CN[*:2])N[*:1]; X1 = O=C(CC1(S[*:2])CCCCC1)[*:1]; X2 = CC(C)(CC(=O)[*:1])S[*:2]; NHBu = CCCCN*
How the values were obtained:
[1] = molecular target: Vasopressin V2 receptor (Rattus norvegicus) (UniProt Q00788); experiment: Dose that reduces urine flow in water-loaded rats; format: functional
[2] = molecular target: Vasopressin V1 receptor (Rattus norvegicus) (UniProt P48974+P30560); experiment: Dose that reduces blood pressure response in rats; format: functional
Vasopressin V1 receptor = Vasopressin V1 receptor (Rattus norvegicus, UniProt P48974+P30560); experiment: In vivo vasopressin V1-antagonistic activity was determined by measuring the blood pressure response in rats.; format: functional, organism-based
Vasopressin V2 receptor = Vasopressin V2 receptor (Rattus norvegicus, UniProt Q00788); experiment: In vivo antidiuretic V2-antagonistic activity was measured as changes in urine flow in water-loaded rats and is expressed as the negative logarithm of the ''effective dose divided by the estimated volume of distribution (67 mL/kg); format: functional, organism-based; settings: read-out: pA2 (converted)
[3] = Ratio of antidiuretic V2 effective dose to that of vasopressin V1 effective dose; format: functional, Urine

Vasopressin V1 receptor (Rattus norvegicus), sequence (P30560 whole entry, looked up): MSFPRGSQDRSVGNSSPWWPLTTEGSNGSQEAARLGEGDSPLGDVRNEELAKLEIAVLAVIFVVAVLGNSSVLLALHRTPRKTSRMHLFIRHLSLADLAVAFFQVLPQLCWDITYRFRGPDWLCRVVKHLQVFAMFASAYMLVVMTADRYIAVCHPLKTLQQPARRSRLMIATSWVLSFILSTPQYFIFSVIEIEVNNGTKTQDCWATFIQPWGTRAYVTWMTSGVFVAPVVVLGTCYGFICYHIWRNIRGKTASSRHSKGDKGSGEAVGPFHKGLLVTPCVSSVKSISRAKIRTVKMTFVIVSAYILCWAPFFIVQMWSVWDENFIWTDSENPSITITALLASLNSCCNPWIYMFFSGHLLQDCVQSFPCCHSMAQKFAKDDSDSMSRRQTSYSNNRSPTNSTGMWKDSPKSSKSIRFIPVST
Vasopressin V1 receptor (Rattus norvegicus), sequence (P48974 whole entry, looked up): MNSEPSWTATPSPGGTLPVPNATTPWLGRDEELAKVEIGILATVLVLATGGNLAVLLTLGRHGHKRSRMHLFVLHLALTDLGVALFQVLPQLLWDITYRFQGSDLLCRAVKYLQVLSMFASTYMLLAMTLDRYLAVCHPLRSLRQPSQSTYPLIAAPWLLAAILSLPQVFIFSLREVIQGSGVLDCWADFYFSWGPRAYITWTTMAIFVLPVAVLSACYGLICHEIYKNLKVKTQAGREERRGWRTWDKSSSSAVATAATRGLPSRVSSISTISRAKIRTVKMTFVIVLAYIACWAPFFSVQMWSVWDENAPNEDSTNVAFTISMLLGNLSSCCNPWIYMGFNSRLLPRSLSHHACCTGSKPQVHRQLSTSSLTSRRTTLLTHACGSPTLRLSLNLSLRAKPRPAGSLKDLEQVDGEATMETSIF
Vasopressin V2 receptor, sequence (Q00788 whole entry): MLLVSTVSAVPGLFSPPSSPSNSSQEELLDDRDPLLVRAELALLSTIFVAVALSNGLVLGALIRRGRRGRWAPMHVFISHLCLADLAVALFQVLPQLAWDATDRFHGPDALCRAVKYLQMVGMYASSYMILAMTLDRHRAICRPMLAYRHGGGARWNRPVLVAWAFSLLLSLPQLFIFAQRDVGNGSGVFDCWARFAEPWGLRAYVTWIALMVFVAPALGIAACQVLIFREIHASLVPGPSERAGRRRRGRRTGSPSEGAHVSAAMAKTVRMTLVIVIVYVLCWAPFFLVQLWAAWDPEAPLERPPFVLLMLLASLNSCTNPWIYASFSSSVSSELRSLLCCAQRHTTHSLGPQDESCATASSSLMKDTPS
Vasopressin V2 receptor (Rattus norvegicus), sequence (Q00788 whole entry): as above

Effective dose [1]: 115 nM/kg
Compound: CC(C)[C@H](NC(=O)[C@H](CCCN=C(N)N)NC(=O)[C@@H]1CCCN1C(=O)[C@H]1CSSC2(CCCCC2)CC(=O)N(C)[C@@H](Cc2ccc(O)cc2)C(=O)N[C@H](Cc2ccccc2)C(=O)N[C@@H](CCC(N)=O)C(=O)N[C@H](CC(N)=O)C(=O)N1)C(N)=O
Effective dose [2]: 0.2 nM/kg

Effective dose [1]: 33 nM/kg
Compound: CN1C(=O)CC2(CCCCC2)SSC[C@H](C(=O)N2CCC[C@H]2C(=O)N[C@@H](CCCN=C(N)N)C(=O)NCCN)NC(=O)[C@@H](CC(N)=O)NC(=O)[C@H](CCC(N)=O)NC(=O)[C@@H](Cc2ccccc2)NC(=O)[C@@H]1Cc1ccc(O)cc1
Effective dose [2]: 0.12 nM/kg

Effective dose [1]: 84 nM/kg
Compound: CNC(=O)[C@H](CCCN=C(N)N)NC(=O)[C@@H]1CCCN1C(=O)[C@H]1CSSC2(CCCCC2)CC(=O)N(C)[C@@H](Cc2ccc(O)cc2)C(=O)N[C@H](Cc2ccccc2)C(=O)N[C@@H](CCC(N)=O)C(=O)N[C@H](CC(N)=O)C(=O)N1
Effective dose [2]: 0.12 nM/kg

Effective dose [1]: 45 nM/kg
Compound: C[C@H](O)[C@H](NC(=O)[C@H](CCCN=C(N)N)NC(=O)[C@@H]1CCCN1C(=O)[C@H]1CSSC2(CCCCC2)CC(=O)N(C)[C@@H](Cc2ccc(O)cc2)C(=O)N[C@H](Cc2ccccc2)C(=O)N[C@@H](CCC(N)=O)C(=O)N[C@H](CC(N)=O)C(=O)N1)C(N)=O
Effective dose [2]: 0.22 nM/kg

Compound: COc1ccc(C[C@@H]2NC(=O)CC3(CCCCC3)SSC[C@@H](C(=O)N3CCC[C@H]3C(=O)N[C@@H](CCCN=C(N)N)C(=O)NCCN)NC(=O)[C@H](CC(N)=O)NC(=O)[C@H](CCC(N)=O)NC(=O)[C@H](Cc3ccccc3)NC2=O)cc1 (Y(Me)FQNCPR-Ethylenediamine; linker N-5 via X1) [listing 1 of 2 here]
pA2 (Vasopressin V1 receptor): 8.75
Kb (Vasopressin V2 receptor): ~501 nM

Compound: COc1ccc(C[C@@H]2NC(=O)CC3(CCCCC3)SSC[C@@H](C(=O)N3CCC[C@H]3C(=O)N[C@@H](CCCN=C(N)N)C(=O)NCCN)NC(=O)[C@H](CC(N)=O)NC(=O)[C@H](CCC(N)=O)NC(=O)[C@H](Cc3ccccc3)NC2=O)cc1 (Y(Me)FQNCPR-Ethylenediamine; linker N-5 via X1) [listing 2 of 2 here]
Ratio [3]: ~275

Compound: CNC(=O)[C@H](CCCN=C(N)N)NC(=O)[C@@H]1CCCN1C(=O)[C@@H]1CSSC2(CCCCC2)CC(=O)N[C@@H](Cc2ccc(OC)cc2)C(=O)N[C@@H](Cc2ccccc2)C(=O)N[C@@H](CCC(N)=O)C(=O)N[C@@H](CC(N)=O)C(=O)N1 (Y(Me)FQNCPR-NHMe; linker N-5 via X1) [listing 1 of 2 here]
pA2 (Vasopressin V1 receptor): 8.73
Kb (Vasopressin V2 receptor): ~1260 nM

Compound: CNC(=O)[C@H](CCCN=C(N)N)NC(=O)[C@@H]1CCCN1C(=O)[C@@H]1CSSC2(CCCCC2)CC(=O)N[C@@H](Cc2ccc(OC)cc2)C(=O)N[C@@H](Cc2ccccc2)C(=O)N[C@@H](CCC(N)=O)C(=O)N[C@@H](CC(N)=O)C(=O)N1 (Y(Me)FQNCPR-NHMe; linker N-5 via X1) [listing 2 of 2 here]
Ratio [3]: ~700

Compound: COc1ccc(C[C@@H]2NC(=O)CC3(CCCCC3)SSC[C@@H](C(=O)N3CCC[C@H]3C(=O)N[C@@H](CCCN=C(N)N)C(=O)N[C@@H](C)C(N)=O)NC(=O)[C@H](CC(N)=O)NC(=O)[C@H](CCC(N)=O)NC(=O)[C@H](Cc3ccccc3)NC2=O)cc1 (Y(Me)FQNCPRA-NH2; linker N-5 via X1) [listing 1 of 2 here]
pA2 (Vasopressin V1 receptor): 8.75
Kb (Vasopressin V2 receptor): ~1000 nM

Compound: COc1ccc(C[C@@H]2NC(=O)CC3(CCCCC3)SSC[C@@H](C(=O)N3CCC[C@H]3C(=O)N[C@@H](CCCN=C(N)N)C(=O)N[C@@H](C)C(N)=O)NC(=O)[C@H](CC(N)=O)NC(=O)[C@H](CCC(N)=O)NC(=O)[C@H](Cc3ccccc3)NC2=O)cc1 (Y(Me)FQNCPRA-NH2; linker N-5 via X1) [listing 2 of 2 here]
Ratio [3]: ~590

Compound: COc1ccc(C[C@@H]2NC(=O)CC(C)(C)SSC[C@@H](C(=O)N3CCC[C@H]3C(=O)N[C@@H](CCCN=C(N)N)C(=O)N[C@@H](C)C(N)=O)NC(=O)[C@H](CC(N)=O)NC(=O)[C@H](CCC(N)=O)NC(=O)[C@H](Cc3ccccc3)NC2=O)cc1 (Y(Me)FQNCPRA-NH2; linker N-5 via X2)
pA2 (Vasopressin V1 receptor): 8.16

Compound: COc1ccc(C[C@@H]2NC(=O)CC3(CCCCC3)SSC[C@@H](C(=O)N3CCC[C@H]3C(=O)N[C@@H](CCCN=C(N)N)C(=O)NCC(=O)NCCN)NC(=O)[C@H](CC(N)=O)NC(=O)[C@H](CCC(N)=O)NC(=O)[C@H](Cc3ccccc3)NC2=O)cc1 (Y(Me)FQNCPRG-Ethylenediamine; linker N-5 via X1) [listing 1 of 2 here]
pA2 (Vasopressin V1 receptor): 8.39
Kb (Vasopressin V2 receptor): ~251 nM

Compound: COc1ccc(C[C@@H]2NC(=O)CC3(CCCCC3)SSC[C@@H](C(=O)N3CCC[C@H]3C(=O)N[C@@H](CCCN=C(N)N)C(=O)NCC(=O)NCCN)NC(=O)[C@H](CC(N)=O)NC(=O)[C@H](CCC(N)=O)NC(=O)[C@H](Cc3ccccc3)NC2=O)cc1 (Y(Me)FQNCPRG-Ethylenediamine; linker N-5 via X1) [listing 2 of 2 here]
Ratio [3]: ~60

Compound: COc1ccc(C[C@@H]2NC(=O)CC3(CCCCC3)SSC[C@@H](C(=O)N3CCC[C@H]3C(=O)N[C@@H](CCCN=C(N)N)C(=O)NCC(N)=O)NC(=O)[C@H](CC(N)=O)NC(=O)[C@H](CCC(N)=O)NC(=O)[C@H](Cc3ccccc3)NC2=O)cc1 (Y(Me)FQNCPRG-NH2; linker N-5 via X1)
pA2 (Vasopressin V1 receptor): 8.62

Compound: CCCCNC(=O)CNC(=O)[C@H](CCCN=C(N)N)NC(=O)[C@@H]1CCCN1C(=O)[C@@H]1CSSC2(CCCCC2)CC(=O)N[C@@H](Cc2ccc(OC)cc2)C(=O)N[C@@H](Cc2ccccc2)C(=O)N[C@@H](CCC(N)=O)C(=O)N[C@@H](CC(N)=O)C(=O)N1 (Y(Me)FQNCPRG-NHBu; linker N-5 via X1)
pA2 (Vasopressin V1 receptor): 8.44

Kb (Vasopressin V2 receptor): ~219 nM
Compound: COc1ccc(C[C@@H]2NC(=O)CC3(CCCCC3)SSC[C@@H](C(=O)N3CCC[C@H]3C(=O)N[C@@H](CCCN=C(N)N)C(=O)N[C@@H](CCCN=C(N)N)C(N)=O)NC(=O)[C@H](CC(N)=O)NC(=O)[C@H](CCC(N)=O)NC(=O)[C@H](Cc3ccccc3)NC2=O)cc1 (Y(Me)FQNCPRR-NH2; linker N-5 via X1)
pA2 (Vasopressin V1 receptor): 8.78

Compound: COc1ccc(C[C@@H]2NC(=O)CC(C)(C)SSC[C@@H](C(=O)N3CCC[C@H]3C(=O)N[C@@H](CCCN=C(N)N)C(=O)N[C@@H](CCCN=C(N)N)C(N)=O)NC(=O)[C@H](CC(N)=O)NC(=O)[C@H](CCC(N)=O)NC(=O)[C@H](Cc3ccccc3)NC2=O)cc1 (Y(Me)FQNCPRR-NH2; linker N-5 via X2)
pA2 (Vasopressin V1 receptor): 8.52

Kb (Vasopressin V2 receptor): ~631 nM
Compound: COc1ccc(C[C@@H]2NC(=O)CC3(CCCCC3)SSC[C@@H](C(=O)N3CCC[C@H]3C(=O)N[C@@H](CCCN=C(N)N)C(=O)N[C@H](C(N)=O)[C@@H](C)O)NC(=O)[C@H](CC(N)=O)NC(=O)[C@H](CCC(N)=O)NC(=O)[C@H](Cc3ccccc3)NC2=O)cc1 (Y(Me)FQNCPRT-NH2; linker N-5 via X1) [listing 1 of 2 here]
pA2 (Vasopressin V1 receptor): 8.49

Compound: COc1ccc(C[C@@H]2NC(=O)CC3(CCCCC3)SSC[C@@H](C(=O)N3CCC[C@H]3C(=O)N[C@@H](CCCN=C(N)N)C(=O)N[C@H](C(N)=O)[C@@H](C)O)NC(=O)[C@H](CC(N)=O)NC(=O)[C@H](CCC(N)=O)NC(=O)[C@H](Cc3ccccc3)NC2=O)cc1 (Y(Me)FQNCPRT-NH2; linker N-5 via X1) [listing 2 of 2 here]
Ratio [3]: ~205

Compound: COc1ccc(C[C@@H]2NC(=O)CC(C)(C)SSC[C@@H](C(=O)N3CCC[C@H]3C(=O)N[C@@H](CCCN=C(N)N)C(=O)N[C@H](C(N)=O)[C@@H](C)O)NC(=O)[C@H](CC(N)=O)NC(=O)[C@H](CCC(N)=O)NC(=O)[C@H](Cc3ccccc3)NC2=O)cc1 (Y(Me)FQNCPRT-NH2; linker N-5 via X2)
pA2 (Vasopressin V1 receptor): 8.04

Kb (Vasopressin V2 receptor): ~1580 nM
Compound: COc1ccc(C[C@@H]2NC(=O)CC3(CCCCC3)SSC[C@@H](C(=O)N3CCC[C@H]3C(=O)N[C@@H](CCCN=C(N)N)C(=O)N[C@H](C(N)=O)C(C)C)NC(=O)[C@H](CC(N)=O)NC(=O)[C@H](CCC(N)=O)NC(=O)[C@H](Cc3ccccc3)NC2=O)cc1 (Y(Me)FQNCPRV-NH2; linker N-5 via X1) [listing 1 of 2 here]
pA2 (Vasopressin V1 receptor): 8.57

Compound: COc1ccc(C[C@@H]2NC(=O)CC3(CCCCC3)SSC[C@@H](C(=O)N3CCC[C@H]3C(=O)N[C@@H](CCCN=C(N)N)C(=O)N[C@H](C(N)=O)C(C)C)NC(=O)[C@H](CC(N)=O)NC(=O)[C@H](CCC(N)=O)NC(=O)[C@H](Cc3ccccc3)NC2=O)cc1 (Y(Me)FQNCPRV-NH2; linker N-5 via X1) [listing 2 of 2 here]
Ratio [3]: ~575

Compound: COc1ccc(C[C@@H]2NC(=O)CC(C)(C)SSC[C@@H](C(=O)N3CCC[C@H]3C(=O)N[C@@H](CCCN=C(N)N)C(=O)N[C@H](C(N)=O)C(C)C)NC(=O)[C@H](CC(N)=O)NC(=O)[C@H](CCC(N)=O)NC(=O)[C@H](Cc3ccccc3)NC2=O)cc1 (Y(Me)FQNCPRV-NH2; linker N-5 via X2)
pA2 (Vasopressin V1 receptor): 8.05

Kb (Vasopressin V2 receptor): ~1000 nM
Compound: COc1ccc(C[C@@H]2NC(=O)CC3(CCCCC3)SSC[C@@H](C(=O)N3CCC[C@H]3C(=O)N[C@@H](CCCN=C(N)N)C(=O)N[C@@H](Cc3ccc(O)cc3)C(N)=O)NC(=O)[C@H](CC(N)=O)NC(=O)[C@H](CCC(N)=O)NC(=O)[C@H](Cc3ccccc3)NC2=O)cc1 (Y(Me)FQNCPRY-NH2; linker N-5 via X1) [listing 1 of 2 here]
pA2 (Vasopressin V1 receptor): 8.47

Compound: COc1ccc(C[C@@H]2NC(=O)CC3(CCCCC3)SSC[C@@H](C(=O)N3CCC[C@H]3C(=O)N[C@@H](CCCN=C(N)N)C(=O)N[C@@H](Cc3ccc(O)cc3)C(N)=O)NC(=O)[C@H](CC(N)=O)NC(=O)[C@H](CCC(N)=O)NC(=O)[C@H](Cc3ccccc3)NC2=O)cc1 (Y(Me)FQNCPRY-NH2; linker N-5 via X1) [listing 2 of 2 here]
Ratio [3]: ~217

Compound: COc1ccc(C[C@@H]2NC(=O)CC(C)(C)SSC[C@@H](C(=O)N3CCC[C@H]3C(=O)N[C@@H](CCCN=C(N)N)C(=O)N[C@@H](Cc3ccc(O)cc3)C(N)=O)NC(=O)[C@H](CC(N)=O)NC(=O)[C@H](CCC(N)=O)NC(=O)[C@H](Cc3ccccc3)NC2=O)cc1 (Y(Me)FQNCPRY-NH2; linker N-5 via X2)
pA2 (Vasopressin V1 receptor): 8.25

Compound: COc1ccc(C[C@@H]2NC(=O)CC(C)(C)SSC[C@@H](C(=O)N3CCC[C@H]3C(=O)N[C@@H](CCCN=C(N)N)C(=O)NCC(N)=O)NC(=O)[C@H](CC(N)=O)NC(=O)[C@H](CCC(N)=O)NC(=O)[C@H](Cc3ccccc3)NC2=O)cc1 [DP[TYR(ME)2]AVP] (Y(Me)FQNCPRG-NH2; linker N-5 via X2)
pA2 (Vasopressin V1 receptor): 7.96
